Common to all, as to format: functional, organism-based
The test system of assay [1] is Chikungunya virus. The assay can be described thus: Antiviral activity against CHIKV infected in male C57BL/6 mouse assessed as reduction in viral level in left quad at 100 mg/kg, administered three times a day and measured after 48 hrs.
Assay [2] concerns Chikungunya virus. Description: Antiviral activity against CHIKV infected in male C57BL/6 mouse assessed as reduction in viral level in right quad at 100 mg/kg, administered three times a day and measured after 48 hrs.
The subject of assay [3] is Chikungunya virus. The assay can be described thus: Antiviral activity against CHIKV infected in male C57BL/6 mouse assessed as reduction in viral level in spleen at 100 mg/kg, administered three times a day and measured after 48 hrs.
The test system of assay [4] is Chikungunya virus. Description: Antiviral activity against CHIKV infected in male C57BL/6 mouse assessed as reduction in viral level in right foot at 100 mg/kg, administered three times a day and measured after 48 hrs.
In assay [5] the test system is Chikungunya virus. Description: Antiviral activity against CHIKV infected in male C57BL/6 mouse assessed as reduction in viral level in left foot at 100 mg/kg, administered three times a day and measured after 48 hrs.
For assay [6], the system named is Chikungunya virus. The assay can be described thus: Antiviral activity against CHIKV infected in male C57BL/6 mouse assessed as reduction in viral level in serum at 100 mg/kg, administered three times a day and measured after 48 hrs.

Each structure is given as a SMILES string. Active and inactive are the calls of the source. The calls are words filed in the database; no cut-off is given here.

Regarding `CCOc1ccccc1-c1cc(C(=O)NC/C=C/S(C)(=O)=O)n[nH]1`, the outcome in assay [1], in assay [2] and in assay [3] was Active. The Activity result is recorded as “Active; Viral Level Reduced In 4 Out Of 5 Mouse” in assay [4] and “Active; Reduction Of Small Level Of Virus Level Observed” in assay [6]. The outcome in assay [5] was inactive.

Source of the values: ChEMBL document CHEMBL6109178, “Species-Dependent Metabolism of a Covalent nsP2 Protease Inhibitor with In Vivo Antialphaviral Activity” (J Med Chem, 2025).
